Patent US8802720B2, “Acylamino-substituted fused cyclopentanecarboxylic acid derivatives and their use as pharmaceuticals” (SANOFI, priority 2008, dated 2014)

target: human Edg-2 receptor (LPA1 receptor) (Homo sapiens, UniProt Q92633); assay: Edg-2 receptor inhibition by FLIPR calcium fluorescence measurement (LPA-mediated calcium liberation); format: cell-based; details: CHO cells stably overexpressing human Edg-2 receptor; LPA 18:1 100 nM; fluo-4 fluorescence; triplicate; read-out: Inhibitory concentrations IC50 for inhibition of the Edg-2 receptor
Description: A) Determination of Edg-2 Receptor Inhibition by Fluorescence Imaging Plate Reader (FLIPR) Measurements
The inhibition of the Edg-2 receptor (LPA1 receptor) by the compounds of the invention was quantified by the inhibitory effect on the LPA-mediated calcium liberation in a cell-based calcium fluorescence assay by use of Chinese hamster ovarian (CHO) cells in which the human Edg-2 receptor was stably overexpressed (FIp-In system, Invitrogen). […] Changes in intracellular calcium were determined by fluorescence measurement with the calcium-sensitive dye fluo-4 (Invitrogen) in a fluorescence imaging plate reader (FLIPR, […]).
CHO cells stably overexpressing the human Edg-2 receptor were seeded (40.000 per well) in black clear-bottomed poly-D-lysine-coated 96 well plates (Becton Dickinson, Biocoat cellware) approximately 18-24 h prior to the experiments. Cells were grown in an incubator at 37° C., 5% carbon dioxide and 95% humidity in cell culture media based on F-12 glutamax media (Gibco, #31765) supplemented with 1% (vol/vol) penicilline/streptomycine (PAN, #P06-07100), 10% (vol/vol) fetal calf serum (FCS, PAA, #A15-151) and hygromycin B (Invitrogen, #10687-010) 300 mg/l (final concentrations).
Prior to the FLIPR experiment, cells were loaded with fluo-4 acetoxymethyl ester (fluo-4 AM, Invitrogen, #F14202) for 60 min in an incubator at 37° C., 5% carbon dioxide and 95% humidity in dye-loading buffer consisting of Hanks' Balanced Salt Solution (HBSS, Invitrogen, #14065049) supplemented with fluo-4 AM at 2 μM (all data given for final concentration), Pluronic® F-127 0.05% (vol/vol) (Invitrogen, #P-3000 MP), HEPES 20 mM (Gibco, #15630), probenecid 2.5 mM (Sigma, #P-8761) and bovine serum albumin 0.05% (BSA, Sigma, #A-6003), adjusted to pH 7.5 with sodium hydroxide. During cell loading, fluo-4 AM is cleaved by intracellular esterase resulting in trapping of the dye fluo-4 within the cells. Loading was terminated by washing of the cells in a cell washer (Tecan Power washer) three times with the buffer specified afore but without fluo-4 AM and BSA. This latter buffer was also used as the buffer in the subsequent cell fluorescence measurements.
The dye-loaded and washed cells were pre-incubated for approximately 5 min with various concentrations of the test compound added as a solution in DMSO (0.3% vol/vol maximum final concentration of DMSO), or with DMSO in the respective concentration only (positive control). Subsequent addition of LPA (18:1, 1-oleoyl-sn-glycerol 3-phosphate; 100 nM final concentration) leads to liberation of intracellular calcium from internal stores resulting in a large transient increase of the fluo-4 fluorescence signal which was monitored over approximately 3 min. The percent inhibition caused by the test compound was determined from the maximum fluorescence response after LPA addition to cells pre-incubated with the compound as compared to the maximum fluorescence response after LPA addition to cells pre-incubated with DMSO only. All fluorescence values were corrected for the baseline fluorescence values obtained with cells which were pre-incubated with DMSO only and were not treated with LPA (baseline control). All measurements were performed in triplicate. From the percent inhibitions the inhibitory concentration IC50 was determined.

human Edg-2 receptor (LPA1 receptor), sequence (Q92633 whole entry): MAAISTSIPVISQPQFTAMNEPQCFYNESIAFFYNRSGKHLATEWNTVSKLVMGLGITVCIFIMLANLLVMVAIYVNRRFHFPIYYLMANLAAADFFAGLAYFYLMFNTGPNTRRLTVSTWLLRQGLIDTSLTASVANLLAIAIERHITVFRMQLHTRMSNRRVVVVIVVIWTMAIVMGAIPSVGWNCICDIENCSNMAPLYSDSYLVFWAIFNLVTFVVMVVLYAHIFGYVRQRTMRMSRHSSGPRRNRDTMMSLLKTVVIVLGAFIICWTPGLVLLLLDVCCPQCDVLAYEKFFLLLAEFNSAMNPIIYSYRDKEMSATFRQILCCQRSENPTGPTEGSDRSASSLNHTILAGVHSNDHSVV

IC50 | SMILES
1000 to 30000 nM | COc1ccc(CCCCOc2cc(C(=O)NC3(C(=O)O)Cc4ccccc4C3)ccc2OC)cc1 [Example 60]
1000 to 30000 nM | COc1ccc(C(=O)NC2(C(=O)O)Cc3ccccc3C2)cc1OCCCC1CCCCC1 [Example 61]
1000 to 30000 nM | COc1ccc(C(=O)NC2(C(=O)O)Cc3ccccc3C2)cc1OCCC1CCN(Cc2ccccc2)CC1 [Example 66]
1000 to 30000 nM | CCOC(=O)N1CCN(CCOc2cc(C(=O)NC3(C(=O)O)Cc4ccccc4C3)ccc2OC)CC1 [Example 67]
1000 to 30000 nM | COc1ccc(C(=O)NC2(C(=O)O)Cc3ccccc3C2)cc1OCCCN1CCCC1=O [Example 68]
1000 to 30000 nM | COc1ccc(C(=O)NC2(C(=O)O)Cc3ccccc3C2)cc1OCc1nc2ccccc2n1C [Example 69]
1000 to 30000 nM | COc1ccc(C(=O)NC2(C(=O)O)Cc3ccccc3C2)cc1OCc1cc(-c2csc(C)n2)on1 [Example 74]
1000 to 30000 nM | COc1ccc(C(=O)NC2(C(=O)O)Cc3ccccc3C2)cc1OCCSc1nccn1C [Example 75]
1000 to 30000 nM | COc1ccc(C(=O)NC2(C(=O)O)Cc3ccccc3C2)cc1OCc1cn(-c2ccccc2)nn1 [Example 79]
1000 to 30000 nM | COc1ccc(C(=O)NC2(C(=O)O)Cc3ccccc3C2)cc1OCC1CC1C (stereo not shown) [Example 82]
1000 to 30000 nM | CC[C@H](COc1cc(C(=O)NC2(C(=O)O)Cc3ccccc3C2)ccc1OC)N1Cc2ccccc2C1 [Example 83]
1000 to 30000 nM | COc1ccc(C(=O)NC2(C(=O)O)Cc3ccccc3C2)cc1OCCCCCC(=O)O [Example 84]
1000 to 30000 nM | COc1ccc(C(=O)NC2(C(=O)O)Cc3ccccc3C2)cc1OCc1c(C)noc1C [Example 88]
< 100 nM | COc1ccc(C(=O)NC2(C(=O)O)Cc3cscc3C2)cc1OCCc1cccc(C)c1 [Example 98, 5-[4-Methoxy-3-(2-m-tolyl-ethoxy)-benzoylamino]-5,6-dihydro-4H-cyclopenta[c]thiophene-5-carboxylic acid]
< 100 nM | COc1ccc(C(=O)NC2(C(=O)O)Cc3ccsc3C2)cc1OCCc1cccc(C)c1 (stereo not shown) [Example 99, 5-[4-Methoxy-3-(2-m-tolyl-ethoxy)-benzoylamino]-5,6-dihydro-4H-cyclopenta[b]thiophene-5-carboxylic acid]

Second part, the compound before the results:

SMILES | IC50
COc1ccc(C(=O)NC2(C(=O)O)Cc3ccccc3C2)cc1OCCCCC(C)C [Example 59] | 1000 to 30000 nM
COc1ccc(C(=O)NC2(C(=O)O)Cc3ccccc3C2)cc1OCCCc1ccc(Cl)cc1 [Example 62] | 1000 to 30000 nM
COc1ccc(C(=O)NC2(C(=O)O)Cc3ccccc3C2)cc1OCCC1CCCN1C (stereo not shown) [Example 64] | 1000 to 30000 nM
COc1ccc(C(=O)NC2(C(=O)O)Cc3ccccc3C2)cc1OCc1cc(C)ccc1C [Example 65] | 1000 to 30000 nM
COc1ccc(C(=O)NC2(C(=O)O)Cc3ccccc3C2)cc1OCCc1nc(-c2ccccc2)oc1C [Example 70] | 1000 to 30000 nM
CCn1cc(COc2cc(C(=O)NC3(C(=O)O)Cc4ccccc4C3)ccc2OC)cn1 [Example 71] | 1000 to 30000 nM
COc1ccc(C(=O)NC2(C(=O)O)Cc3ccccc3C2)cc1OCc1csc2ccccc12 [Example 72] | 1000 to 30000 nM
COc1ccc(C(=O)NC2(C(=O)O)Cc3ccccc3C2)cc1OCc1ccc(-n2ccnc2)cc1 [Example 73] | 1000 to 30000 nM
COc1ccc(C(=O)NC2(C(=O)O)Cc3ccccc3C2)cc1OCc1ccc(N2CCCC2)nc1 [Example 76] | 1000 to 30000 nM
COc1ccc(C(=O)NC2(C(=O)O)Cc3ccccc3C2)cc1OCc1ncc(C)c(NC(C)=O)c1C [Example 77] | 1000 to 30000 nM
COc1ccc(C(=O)NC2(C(=O)O)Cc3ccccc3C2)cc1OCC1CCC(C(=O)O)C1 (stereo not shown) [Example 78] | 1000 to 30000 nM
COc1ccc(C(=O)NC2(C(=O)O)Cc3ccccc3C2)cc1OCc1cc(C)n(C)n1 [Example 80] | 1000 to 30000 nM
COc1ccc(C(=O)NC2(C(=O)O)Cc3ccccc3C2)cc1OCCC1=CC[C@H]2C[C@@H]1C2(C)C [Example 81] | < 100 nM
COc1ccc(C(=O)NC2(C(=O)O)Cc3ccccc3C2)cc1OCCCN1CCCCC1 [Example 85] | 1000 to 30000 nM
COc1ccc(C(=O)NC2(C(=O)O)Cc3ccccc3C2)cc1OCCC1CC1 [Example 86] | 1000 to 30000 nM
COc1ccc(C(=O)NC2(C(=O)O)Cc3ccccc3C2)cc1OCC1C[C@H]2C=C[C@@H]1C2 (stereo partly shown) [Example 87] | 1000 to 30000 nM

SMILES | IC50
COc1ccc(C(=O)NC2(C(=O)O)Cc3ccccc3C2)cc1OCc1snnc1-c1ccccc1 [Example 89] | 1000 to 30000 nM
COc1ccc(C(=O)NC2(C(=O)O)Cc3ccccc3C2)cc1OCC1CC(c2ccccn2)=NO1 (stereo not shown) [Example 90] | 1000 to 30000 nM
COc1ccc(C(=O)NC2(C(=O)O)Cc3ccccc3C2)cc1OCCc1cccc(C#N)c1 [Example 94, 2-{3-[2-(3-Cyano-phenyl)-ethoxy]-4-methoxy-benzoylamino}-indane-2-carboxylic acid] | < 100 nM
COc1ccc(C(=O)NC2(C(=O)O)Cc3ccccc3C2)cc1OCCc1cccc(C(N)=O)c1 [Example 95, 2-{3-[2-(3-Carbamoyl-phenyl)-ethoxy]-4-methoxy-benzoylamino}-indane-2-carboxylic acid] | 1000 to 30000 nM
COc1ccc(C(=O)NC2(C(=O)O)Cc3ccccc3C2)cc1OCCc1cccc(C(=O)O)c1 [Example 96, 2-{3-[2-(3-Carboxy-phenyl)-ethoxy]-4-methoxy-benzoylamino}-indane-2-carboxylic acid] | 1000 to 30000 nM
COc1ccc(C(=O)NC2(C(=O)O)Cc3cc(Cl)sc3C2)cc1OCCc1cccc(C)c1 (stereo not shown) [Example 100, 2-Chloro-5-[4-methoxy-3-(2-m-tolyl-ethoxy)-benzoylamino]-5,6-dihydro-4H-cyclopenta[b]thiophene-5-carboxylic acid] | < 100 nM
COc1ccc(C(=O)NC2(C(=O)O)Cc3cccnc3C2)cc1OCCc1cccc(C)c1 (stereo not shown) [Example 101, 6-[4-Methoxy-3-(2-m-tolyl-ethoxy)-benzoylamino]-6,7-dihydro-5H-[1]pyrindine-6-carboxylic acid] | 1000 to 30000 nM
CC(=O)c1sc(C(=O)NC2(C(=O)O)Cc3ccccc3C2)cc1OCCc1cccc(C)c1 [Example 102, 2-{[5-Acetyl-4-(2-m-tolyl-ethoxy)-thiophene-2-carbonyl]-amino}-indane-2-carboxylic acid] | 100 to 1000 nM
COc1cc([N+](=O)[O-])c(C(=O)NC2(C(=O)O)Cc3ccccc3C2)cc1OCCc1cccc(Cl)c1 [Example 103, 2-{5-[2-(3-Chloro-phenyl)-ethoxy]-4-methoxy-2-nitro-benzoylamino}-indane-2-carboxylic acid] | 1000 to 30000 nM
COc1cc(Br)c(C(=O)NC2(C(=O)O)Cc3ccccc3C2)cc1OCCc1cccc(Cl)c1 [Example 104, 2-{2-Bromo-5-[2-(3-chloro-phenyl)-ethoxy]-4-methoxy-benzoylamino}-indane-2-carboxylic acid] | 1000 to 30000 nM
COc1cc(Cl)c(C(=O)NC2(C(=O)O)Cc3ccccc3C2)cc1OCCc1cccc(Cl)c1 [Example 105, 2-{2-Chloro-5-[2-(3-chloro-phenyl)-ethoxy]-4-methoxy-benzoylamino}-indane-2-carboxylic acid] | 100 to 1000 nM
COc1c(F)cc(C(=O)NC2(C(=O)O)Cc3ccccc3C2)cc1OCCc1cccc(C)c1 [Example 106, 2-[3-Fluoro-4-methoxy-5-(2-m-tolyl-ethoxy)-benzoylamino]-indane-2-carboxylic acid] | < 100 nM
COc1c(OCCc2cccc(C)c2)cc(C(=O)NC2(C(=O)O)Cc3ccccc3C2)cc1[N+](=O)[O-] [Example 107, 2-[4-Methoxy-3-nitro-5-(2-m-tolyl-ethoxy)-benzoylamino]-indane-2-carboxylic acid] | 1000 to 30000 nM
COc1ccc(C(=O)N(C)C2(C(=O)O)Cc3ccccc3C2)cc1OCCc1cccc(C)c1 [Example 108, 2-{[4-Methoxy-3-(2-m-tolyl-ethoxy)-benzoyl]-methyl-amino}-indane-2-carboxylic acid] | 100 to 1000 nM
COc1ccc(C(=O)NC2(C(=O)O)Cc3ccccc3C2)cc1OS(=O)(=O)c1ccccc1 [Example 109, 2-(3-Benzenesulfonyloxy-4-methoxy-benzoylamino)-indane-2-carboxylic acid] | 1000 to 30000 nM
